{"source": "patent US20120009320A1", "about": "“COMPOSITIONS COMPRISING MONATIN AND CALCIUM” (priority 2009, published 2012)", "key": {"[1]": {"settings": "Schiffman, Physiology & Behavior 68 (2000); cited from earlier work"}, "panelists": {"test_system": "panelists", "assay": "Sweetness matching of monatin/salt combinations in water pH 7 and citric/citrate buffer pH 3, Examples 3-5", "assay_type": "in vivo, human", "description": "Test and reference solutions were prepared in the same medium. The SEVs of monatin/salt combinations at the appropriate concentrations were measured and compared to the SEV of monatin measured in the absence of any salts. […] Monatin-containing test samples and sucrose references were prepared in the same medium. Based on the previous observations that the sweetness of monatin relative to sucrose is sweeter at acidic pH, this study was carried out under two pH conditions; specifically, in water at pH 7-7.5 and in a citric/citrate buffer at pH 3.0. 2R,4R-Monatin mono potassium salt was used as an illustrative form of monatin for the experiments below. All monatin solutions were prepared ‘as is’, i.e., a 40 ppm monatin solution is 40 ppm of monatin mono potassium salt. A sweetness matching procedure was adopted. […] Each test sample was either monatin control or monatin plus designated salt at the stated concentration. Panelists were instructed to taste the test sample and then to identify the reference sample that matched the perceived sweetness of the test sample. If the sweetness of the test sample was judged to fall between that of two references, panelists were instructed to estimate sweetness to one decimal point. Panelists evaluated each sample in duplicate. Results for each test sample were averaged. […] The five samples were tested at pH 7 (water medium) and at pH 3 (citric/citrate buffer). […] The weight percent of calcium in the salt is different for each of the calcium salts. As such, the weight percent of the calcium salt in each sample is calculated in order to determine how much salt is needed to deliver 1200 ppm of calcium cations. […] The weight percent of the other calcium salts is similarly calculated based on the molar weight percent of calcium in the calcium salt. […] The samples were created at pH 3 and pH 7. The impact of other metal ions, specifically potassium and magnesium, (i.e. […] These ions were tested in the form and concentrations found in cow's milk."}, "[2]": {"assay": "Sweetness of monatin stereoisomers relative to sucrose by weight (from SEV)", "assay_type": "in vivo", "settings": "general statement of the description", "description": "As used herein, “sucrose equivalency value”, or SEV, is a measure of sweetness. The SEV is the concentration (% w/v) of a sucrose solution that gives a degree of sweetness that is perceived to be the same degree of sweetness as that of a test sample. For purposes of this disclosure, the SEV of an aqueous or dairy solution containing monatin is determined through comparison of the monatin-containing solution to a series of sucrose containing solutions prepared in the same medium (see Example 1).\nMonatin-containing compositions are described herein as being “X” times as sweet as sucrose. The various stereoisomers of monatin are also described as being “X” times sweeter than sucrose. These values are determined from the SEV of the compositions."}, "[3]": {"settings": "salt (1450 ppm K+ or 170 ppm Mg2+) with 40 ppm monatin vs monatin only, pH 3.0"}, "[4]": {"settings": "salt (1450 ppm K+ or 170 ppm Mg2+) with 40 ppm monatin, pH 3.0, KCl solutions very salty, estimates difficult"}, "[5]": {"settings": "salt (1450 ppm K+ or 170 ppm Mg++) with 40 ppm monatin vs monatin only, pH 7.0"}, "[6]": {"settings": "salt (1450 ppm K+ or 170 ppm Mg++) with 40 ppm monatin, pH 7.0, KCl solutions very salty, estimates difficult"}, "[7]": {"settings": "200 ppm calcium (from calcium chloride), 40 ppm monatin, pH 3.0"}, "[8]": {"settings": "200 ppm calcium (from calcium chloride), 40 ppm monatin, pH 7.0"}, "[9]": {"settings": "400 ppm calcium (from calcium chloride), 40 ppm monatin, pH 3.0"}, "[10]": {"settings": "400 ppm calcium (from calcium chloride), 40 ppm monatin, pH 7.0"}, "[11]": {"settings": "800 ppm calcium (from calcium chloride), 40 ppm monatin, pH 3.0"}, "[12]": {"settings": "800 ppm calcium (from calcium chloride), 40 ppm monatin, pH 7.0"}, "[13]": {"settings": "1200 ppm calcium (from calcium chloride), 40 ppm monatin, pH 3.0"}, "[14]": {"settings": "1200 ppm calcium (from calcium chloride), 40 ppm monatin, pH 7.0"}, "[15]": {"settings": "calcium salt at 1200 ppm Ca2+ with 40 ppm monatin vs monatin only, pH 3.0"}, "[16]": {"settings": "calcium salt at 1200 ppm Ca2+ with 40 ppm monatin vs monatin only, pH 7.0"}, "[17]": {"settings": "calcium salt at 1200 ppm Ca2+ with 40 ppm monatin, pH 3.0"}, "[18]": {"settings": "calcium salt at 1200 ppm Ca2+ with 40 ppm monatin, pH 7.0"}}, "note": "Marks after values point to notes of the source that are not given here. Peptide text beside a SMILES is read from it."}
{"compound": "OC[C@H]1O[C@@](CO)(O[C@H]2O[C@H](CO)[C@@H](O)[C@H](O)[C@H]2O)[C@@H](O)[C@@H]1O", "note": "[sucrose]", "values": [{"measurement": "effect of the addition of calcium ions on the sweetness intensity of the sweetener", "setting": "[1]", "value": "did not have an effect"}]}
{"compound": "Magnesium gluconate", "values": [{"measurement": "Sweetness Enhancement", "setting": "panelists; [3]", "value": 6, "unit": "%"}, {"measurement": "Sucrose Equivalency Value", "setting": "panelists; [4]", "value": 9.1, "unit": "%"}, {"measurement": "Sweetness Enhancement", "setting": "panelists; [5]", "value": 9, "unit": "%"}, {"measurement": "Sucrose Equivalency Value", "setting": "panelists; [6]", "value": 9.2, "unit": "%"}]}
{"compound": "NC(CC(O)(Cc1c[nH]c2ccccc12)C(=O)O)C(=O)O", "note": "(stereo not drawn) [S,S stereoisomer of monatin, 4-amino-2-hydroxy-2-(1H-indol-3-ylmethyl)-pentanedioic acid]", "values": [{"measurement": "times sweeter than sucrose by weight", "setting": "[2]", "value": "50-200 times"}]}
{"compound": "[Cl-].[K+]", "note": "[Potassium chloride]", "values": [{"measurement": "Sweetness Enhancement", "setting": "panelists; [3]", "value": 7, "unit": "%"}, {"measurement": "Sucrose Equivalency Value", "setting": "panelists; [4]", "value": 9.2, "unit": "%"}, {"measurement": "Sweetness Enhancement", "setting": "panelists; [5]", "value": 4, "unit": "%"}, {"measurement": "Sucrose Equivalency Value", "setting": "panelists; [6]", "value": 8.7, "unit": "%"}]}
{"compound": "COC(=O)[C@H](Cc1ccccc1)NC(=O)[C@@H](N)CC(=O)O", "note": "[aspartame] (HELM PEPTIDE1{D.F.[CO[*:1]]}$$$$V2.0)", "values": [{"measurement": "effect of the addition of calcium ions on the sweetness intensity of the sweetener", "setting": "[1]", "value": "did not have an effect"}]}
{"compound": "[Ca+2].[Cl-].[Cl-]", "note": "[Calcium chloride]", "values": [{"measurement": "Sucrose Equivalency Value", "setting": "panelists; [7]", "value": 9.5, "unit": "%"}, {"measurement": "Sweetness Enhancement", "setting": "panelists; [7]", "value": 10, "unit": "%"}, {"measurement": "Sucrose Equivalency Value", "setting": "panelists; [8]", "value": 10.0, "unit": "%"}, {"measurement": "Sweetness Enhancement", "setting": "panelists; [8]", "value": 19, "unit": "%"}, {"measurement": "Sucrose Equivalency Value", "setting": "panelists; [9]", "value": 10.0, "unit": "%"}, {"measurement": "Sweetness Enhancement", "setting": "panelists; [9]", "value": 16, "unit": "%"}, {"measurement": "Sucrose Equivalency Value", "setting": "panelists; [10]", "value": 10.2, "unit": "%"}, {"measurement": "Sweetness Enhancement", "setting": "panelists; [10]", "value": 21, "unit": "%"}, {"measurement": "Sucrose Equivalency Value", "setting": "panelists; [11]", "value": 10.2, "unit": "%"}, {"measurement": "Sweetness Enhancement", "setting": "panelists; [11]", "value": 19, "unit": "%"}, {"measurement": "Sucrose Equivalency Value", "setting": "panelists; [12]", "value": 10.2, "unit": "%"}, {"measurement": "Sweetness Enhancement", "setting": "panelists; [12]", "value": 21, "unit": "%"}, {"measurement": "Sucrose Equivalency Value", "setting": "panelists; [13]", "value": 10.3, "unit": "%"}, {"measurement": "Sweetness Enhancement", "setting": "panelists; [13]", "value": 20, "unit": "%"}, {"measurement": "Sucrose Equivalency Value", "setting": "panelists; [14]", "value": 10.1, "unit": "%"}, {"measurement": "Sweetness Enhancement", "setting": "panelists; [14]", "value": 20, "unit": "%"}, {"measurement": "Sweetness Enhancement", "setting": "panelists; 1600 ppm calcium (from calcium chloride), 40 ppm monatin, pH 3.0", "value": 19, "unit": "%"}, {"measurement": "Sucrose Equivalency Value", "setting": "panelists; 1600 ppm calcium (from calcium chloride), 40 ppm monatin, pH 3.0, solutions very salty, SEV estimate very difficult", "value": "10.2** %"}, {"measurement": "Sweetness Enhancement", "setting": "panelists; 1600 ppm calcium (from calcium chloride), 40 ppm monatin, pH 7.0", "value": 21, "unit": "%"}, {"measurement": "Sucrose Equivalency Value", "setting": "panelists; 1600 ppm calcium (from calcium chloride), 40 ppm monatin, pH 7.0, solutions very salty, SEV estimate very difficult", "value": "10.2** %"}, {"measurement": "Sweetness Enhancement", "setting": "panelists; [15]", "value": 20, "unit": "%"}, {"measurement": "Sweetness Enhancement", "setting": "panelists; [16]", "value": 20, "unit": "%"}, {"measurement": "Sucrose Equivalency Value", "setting": "panelists; [17]", "value": 10.3, "unit": "%"}, {"measurement": "Sucrose Equivalency Value", "setting": "panelists; [18]", "value": 10.1, "unit": "%"}]}
{"compound": "calcium", "values": [{"measurement": "Sweetness Enhancement", "setting": "panelists; [7]", "value": 10, "unit": "%"}, {"measurement": "Sweetness Enhancement", "setting": "panelists; [8]", "value": 19, "unit": "%"}]}
{"compound": "CC(O)C(=O)[O-].CC(O)C(=O)[O-].[Ca+2]", "note": "(stereo not drawn) [Calcium lactate]", "values": [{"measurement": "Sweetness Enhancement", "setting": "panelists; [15]", "value": 10, "unit": "%"}, {"measurement": "Sweetness Enhancement", "setting": "panelists; [16]", "value": 13, "unit": "%"}, {"measurement": "Sucrose Equivalency Value", "setting": "panelists; [17]", "value": 9.5, "unit": "%"}, {"measurement": "Sucrose Equivalency Value", "setting": "panelists; [18]", "value": 9.5, "unit": "%"}]}
{"compound": "Calcium gluconate", "values": [{"measurement": "Sweetness Enhancement", "setting": "panelists; [15]", "value": 7, "unit": "%"}, {"measurement": "Sweetness Enhancement", "setting": "panelists; [16]", "value": 13, "unit": "%"}, {"measurement": "Sucrose Equivalency Value", "setting": "panelists; [17]", "value": 9.2, "unit": "%"}, {"measurement": "Sucrose Equivalency Value", "setting": "panelists; [18]", "value": 9.5, "unit": "%"}]}
